The results in this text go back to paper PMC8121762, “Peptidomics of enteroendocrine cells and characterisation of potential effects of a novel preprogastrin derived-peptide on glucose tolerance in lean mice” (Peptides, 2021).

“Also recorded” adds a separate entry of the source. Where a SMILES comes first, the peptide text is derived from it. [ ]: non-standard residue; d: D form. pGlu = O=C1CC[C@@H](C(=O)O)N1

Common to all, as to format: in vivo, mouse
In experiment [1] the test system is diet-induced obese mice (DIO). The experiment can be described thus: Osmotic pump study 3: IP GTT, OGTT and ITT in diet-induced obese mice. To be noted: vs vehicle. Here is the method: (§1) Three studies were performed to assess the in vivo efficacy of the ChgA 435−462a and Gast p59−79 (see Figure legends for specifics of each study). Peptides were administered by osmotic pumps implanted subcutaneously under isoflurane anaesthesia. Food intake was assessed using BioDaq (Research Diets) automated food intake cages. Intraperitoneal (IP) glucose tolerance tests (GTT) were performed by administering a 2 g/kg challenge of glucose and measuring blood glucose levels from the tail vein whereas oral GTT (OGTT) were performed using 1 g/kg glucose challenge. Insulin tolerance tests (ITT) were performed by administering a 0.75 U/kg dose of insulin IP to the mice and assessing blood glucose levels at 15, 30, 45, 60, 90 and 120 min post-insulin challenge.
(§2) Fig. 7 In vivo characterisation of novel peptides. (A-C) PK data of ChgA 435-462a, Gast p59-79, Sst 25-36. (D-G) Data from 1st osmotic pump study where n = 5/group. […] Body weights (E) and food intake (D) were measured throughout the study. Week 0 and day -7 represent baseline data prior to treatment onset. Glucose tolerance was assessed every 7 days after surgery via an IP GTT using a 2 g/kg glucose challenge. Results from IP GTT on day 28 shown in (F, G). Statistical analysis performed using Kruskal-Wallis test with post-hoc Dunn tests. (H, I) Results from osmotic pump study 2 where n = 8/group. Mice singly housed and infused with either Gast p59-79 or vehicle for 7 days. 2 g/kg IP GTT performed on day 7 and results shown in H and I. Statistical analysis performed using T test. (J-P) Results from osmotic pump study 3 where n = 7/group. Mice singly housed and infused with either Gast p59-79 or vehicle for 7 days. 2 g/kg IP GTT performed on day 7 (J, K) and 1 g/kg OGTT performed on day 14 (L, M). 0.75 U/kg ITT performed on day 21 (N, O). Body weights vs AUC during ITT on day 21 (P). Error bars represent SD. *P < 0.05, **p < 0.01, ***p < 0.005.

In a further experiment the test system is lean mice. The experiment can be described thus: 1st osmotic pump study: 28-day infusion, body weight, food intake, weekly IP GTT. The conditions noted are these: n = 5/group. Here is the method:
as §1
as §2, with “Results from IP GTT on day 28 shown in (F, G).” left out, “(H, I) Results from osmotic pump study 2 where n = 8/group.” left out, “2 g/kg IP GTT performed on day 7 and results shown in H and I. Statistical analysis performed using T test. (J-P) Results from osmotic pump study 3 where n = 7/group.” left out

In the next experiment the test system is mice. As to the kind of experiment: Osmotic pump study 2: 7-day infusion, IP GTT. To be noted: osmotic pump 7 days, 2 g/kg IP GTT on day 7, n = 8/group, vs vehicle, T test. Here is the method: as §1
Fig. 7 In vivo characterisation of novel peptides. (A-C) PK data of ChgA 435-462a, Gast p59-79, Sst 25-36. (D-G) Data from 1st osmotic pump study where n = 5/group. […] Body weights (E) and food intake (D) were measured throughout the study. Week 0 and day -7 represent baseline data prior to treatment onset. Glucose tolerance was assessed every 7 days after surgery via an IP GTT using a 2 g/kg glucose challenge. Results from IP GTT on day 28 shown in (F, G). Statistical analysis performed using Kruskal-Wallis test with post-hoc Dunn tests. (H, I) Results from osmotic pump study 2 where n = 8/group. […]

Experiment [2] deals with phosphorylated-AKT (pAKT). As to the kind of experiment: Post-mortem assessment of insulin sensitivity (pAKT / total-AKT, MSD kits). To be noted: DIO mice, 28 days after pump surgery, 15 min after 0.75 U/kg insulin challenge; treatment vs vehicle. As to the method:
At the end of the 3rd osmotic pump study, mice were given a 0.75 U/kg insulin challenge and culled after 15 min. The liver, white adipose tissue (WAT) and skeletal muscle were dissected out and snap frozen in liquid nitrogen and stored at −70 °C until analysis.
50−100 mg pieces of WAT, liver and skeletal muscle were homogenised in MSD (Rockville, MD, USA) lysis buffer with various protease inhibitors supplied by MSD and Qiagen metal bead. Homogenised tissue was allowed to rest at 4 °C for 2 h to allow protein solubilisation and then centrifuged (10 000 g, 10 min, 4 °C). Supernatants were aspirated and stored at -70 °C till analysis. Protein content of all homogenised tissue samples was assessed using a Pierce BCA protein assay kit (Thermo Fisher Scientific) according to the manufacturer’s instructions.
Tissue homogenates were diluted in MSD lysis buffer to the same protein content. Total and phosphorylated-AKT (pAKT) were quantified using respective kits from MSD (total-AKT kit catalogue number: K150MOD-1, pAKT (Ser473) kit catalogue number: K151CAD-1) according to the manufacturer’s instructions.
Fig. 8 Phosphorylated-AKT (pAKT) expressed as a percentage of total AKT in liver (A), skeletal muscle (B) and white adipose tissue (WAT) (C) 15 min after a 0.75 U/kg insulin challenge. (D) Body weights vs pAKT as a percentage of total-AKT. […]

On to `CC[C@H](C)[C@H](NC(=O)[C@H](Cc1ccccc1)NC(=O)[C@H](Cc1c[nH]cn1)NC(=O)[C@H](CCC(N)=O)NC(=O)[C@@H]1CCCN1C(=O)CNC(=O)[C@H](CCC(N)=O)NC(=O)[C@@H]1CCCN1C(=O)CNC(=O)[C@H](CC(C)C)NC(=O)[C@@H]1CCC(=O)N1)C(=O)N[C@@H](C)C(=O)N[C@@H](CC(=O)O)C(=O)N[C@@H](CC(C)C)C(=O)N[C@@H](CO)C(=O)N[C@@H](CCCCN)C(=O)N[C@@H](CCCCN)C(=O)N[C@@H](CCC(N)=O)C(=O)N[C@@H](CCCNC(=N)N)C(=O)N1CCC[C@H]1C(=O)N[C@@H](CCCNC(=N)N)C(=O)O` [Gast p59−79] ([pGlu]LGPQGPQHFIADLSKKQRPR-OH; C-terminus assumed), for which the “AUC during ITT” value in experiment [1] (0.75 U/kg ITT day 21, n = 7/group, significant effect of body weight on AUC (p = 0.009), two-way ANOVA) was “also evident in the AUCs (p = 0.011)”. For the same compound, the “blood glucose levels in ITT” value in experiment [1] (0.75 U/kg insulin IP on day 21, n = 7/group, confounded by body weight) was “differed at 90 and 120 min post-insulin challenge; also recorded: appeared to slow glucose normalisation following an ITT”. Also, the “glucose tolerance (IP GTT and OGTT) in DIO mice” value in experiment [1] (osmotic pump, 2 g/kg IP GTT day 7, 1 g/kg OGTT day 14, n = 7/group, confounded by weight loss) is listed as “did not suggest that Gast p59−79 affected glucose tolerance”. Besides, the “food intake compared with controls” value with lean mice (6-8 week old male mice, BioDAQ cages, osmotic pump 28 days, ChgA 435-462a 0.3, Gast p59-79 0.8, exenatide 0.03 mg/kg/day, vs PBS) was “No significant differences”. Also, the “body weight compared with controls” value in the experiment on lean mice (6-8 week old male mice, osmotic pump 28 days, ChgA 435-462a 0.3, Gast p59-79 0.8, exenatide 0.03 mg/kg/day, vs PBS) is “No significant differences”. The “IP GTT AUC analyses” value in the experiment on lean mice (lean male mice, Gast p59-79 0.8 mg/kg/day, IP GTT 2 g/kg, Kruskal-Wallis with Dunn tests) is given as “did not reach significance”. In the experiment with lean mice (lean male mice, osmotic pump 28 days, IP GTT 2 g/kg glucose every 7 days, ChgA 435-462a 0.3, Gast p59-79 0.8, exenatide 0.03 mg/kg/day, vs PBS), the “glucose tolerance in IP GTT (blood glucose)” value was “Small but significant improvements in individual time point glucose levels”. In addition, in the experiment with mice, the “glucose tolerance in IP GTT, second mouse cohort” value is “modestly improves glucose tolerance”. In addition, in experiment [2], the “percentage of pAKT (of total AKT) in liver, WAT and skeletal muscle” value is listed as “No effect”.
